Data as given in patent US7250442B2, “Dihydroindol-2-one derivatives as steroid hormone nuclear receptor modulators” (Eli Lilly and Company, priority 2003, dated 2007).

target: T1, glucocorticoid receptor (Homo sapiens, UniProt P04150); assay: Glucocorticoid Receptor Binding Assay ([3H]-dexamethasone displacement, A549 cell extract); details: A549 human lung epithelial cell extract, 1.86 nM [3H]-dexamethasone; read-out: GR Ki
T1 construct: host or cells: A549 human lung epithelial cells (sonicated cell extract)
T1 sequence (P04150 1-777): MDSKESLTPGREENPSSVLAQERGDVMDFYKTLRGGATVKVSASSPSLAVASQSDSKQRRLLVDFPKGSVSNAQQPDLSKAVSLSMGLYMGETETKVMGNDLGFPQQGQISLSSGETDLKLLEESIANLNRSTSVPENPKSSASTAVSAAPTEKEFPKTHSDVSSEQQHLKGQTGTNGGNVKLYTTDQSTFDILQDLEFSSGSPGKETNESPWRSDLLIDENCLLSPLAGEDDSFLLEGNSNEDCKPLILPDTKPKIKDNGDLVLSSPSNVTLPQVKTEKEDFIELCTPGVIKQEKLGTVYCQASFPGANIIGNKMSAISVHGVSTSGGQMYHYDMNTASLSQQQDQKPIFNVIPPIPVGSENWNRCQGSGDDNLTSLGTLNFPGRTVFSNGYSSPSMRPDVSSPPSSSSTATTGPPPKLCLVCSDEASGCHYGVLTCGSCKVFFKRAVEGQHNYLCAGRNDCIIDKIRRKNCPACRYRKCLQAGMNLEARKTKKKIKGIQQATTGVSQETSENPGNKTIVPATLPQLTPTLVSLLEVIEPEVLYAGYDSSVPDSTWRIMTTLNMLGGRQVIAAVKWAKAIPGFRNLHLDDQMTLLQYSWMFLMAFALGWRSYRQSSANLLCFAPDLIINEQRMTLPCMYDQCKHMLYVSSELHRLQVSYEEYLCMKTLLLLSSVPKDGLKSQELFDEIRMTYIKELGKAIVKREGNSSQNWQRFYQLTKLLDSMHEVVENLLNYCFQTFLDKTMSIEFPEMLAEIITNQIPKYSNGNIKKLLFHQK
Experimental: Glucocorticoid Receptor Binding Assay:
A549 human lung epithelial cells (ATCC) are grown at a scale where gram quantity cell pellets are obtained. Harvested cell pellets are washed twice in cold phosphate buffered saline, centrifuged, and resuspended in cold assay binding buffer. The assay binding buffer consists of 10% glycerol, 50 mM Tris-HCl (pH7.2), 75 mM sodium chloride, 1.5 mM magnesium chloride, 1.5 mM EDTA, and 10 mM sodium molybdate. Cell suspensions were lysed via sonication, centrifuged, and the “extract” supernatant is snap frozen and stored at −80C. until needed.
GR binding assays are performed in a final volume of 140 ul containing 50-200 ug of A549 cell extract and 1.86 nM [^3H]-dexamethasone (Amersham) plus varying concentrations of test compound or vehicle. Briefly, assays are prepared at RT in 96-well Fisher 3356 plates, each well containing 100 ul of A549 cell extract, 20 ul of [^3H]-dexamethasone, and 20 ul of test compound/vehicle. Incubations are carried out at 4 degrees celsius for 16 hours. After incubation, 70 ul of 3× dextran-coated charcoal solution is added to each reaction, mixed, and incubated for 8 minutes at RT. 3×-dextran-coated charcoal solution consists of 250 ml assay binding buffer, 3.75 g Norit A charcoal (Sigma), and 1.25 g dextran T-70 (Amersham). Charcoal/unbound radioligand complexes are removed by centrifugation of the plate and 140 ul of supernatant from each well is transferred to another 96 well Optiplate (Packard Instruments). 200 ul of Microscint-20 scinillant (Packard Instruments) is added to each well and amount of receptor bound radioligand is determined using Packard Instruments TopCount instrument.
IC50 values, defined as the concentration of test compound required to decrease [^3H]-dexamethasone binding by 50%, are then determined. Ki values for each respective test compound can then be calculated by application of the Cheng-Prusoff equation as described in Cheng et al., Relationship Between The Inhibition Constant (Ki) and The Concentration of Inhibitor Which Causes 50% Inhibition (IC50) of an Enzymatic Reaction, Biochem. Pharmacol., 22: 3099-31088; (1973).

Ki | Compound
≤ 500 nM | COc1cccc(CN2C(=O)C(c3cc(C)c(O)c(C)c3)(c3cc(C)c(O)c(C)c3)c3ccccc32)c1 [Example 56, 3,3-Bis-(4-hydroxy-3,5-dimethyl-phenyl)-1-(3-methoxy-benzyl)-1,3-dihydro-indol-2-one]
≤ 500 nM | Cc1cc(C2(c3cc(C)c(O)c(C)c3)C(=O)N(Cc3ccc(Br)cc3)c3ccccc32)cc(C)c1O [Example 58, 1-(4-Bromo-benzyl)-3,3-bis-(4-hydroxy-3,5-dimethyl-phenyl)-1,3-dihydro-indol-2-one]
≤ 500 nM | Cc1cc(C2(c3cc(C)c(O)c(C)c3)C(=O)N(Cc3ccc([N+](=O)[O-])cc3)c3ccccc32)cc(C)c1O [Example 62, 3,3-Bis-(4-hydroxy-3,5-dimethyl-phenyl)-1-(4-nitro-benzyl)-1,3-dihydro-indol-2-one]
≤ 500 nM | Cc1cc(C2(c3cc(C)c(O)c(C)c3)C(=O)N(Cc3ccccc3Br)c3ccccc32)cc(C)c1O [Example 63, 1-(2-Bromo-benzyl)-3,3-bis-(4-hydroxy-3,5-dimethyl-phenyl)-1,3-dihydro-indol-2-one]
≤ 500 nM | Cc1cc(C2(c3cc(C)c(O)c(C)c3)C(=O)N(Cc3cccc(Br)c3)c3ccccc32)cc(C)c1O [Example 64, 1-(3-Bromo-benzyl)-3,3-bis-(4-hydroxy-3,5-dimethyl-phenyl)-1,3-dihydro-indol-2-one]
≤ 500 nM | Cc1cc(C2(c3cc(C)c(O)c(C)c3)C(=O)N(Cc3ccccc3[N+](=O)[O-])c3ccccc32)cc(C)c1O [Example 65, 3,3-Bis-(4-hydroxy-3,5-dimethyl-phenyl)-1-(2-nitro-benzyl)-1,3-dihydro-indol-2-one]
≤ 500 nM | Cc1cc(C2(c3cc(C)c(O)c(C)c3)C(=O)N(Cc3cccc(F)c3F)c3ccccc32)cc(C)c1O [Example 66, 1-(2,3-Difluoro-benzyl)-3,3-bis-(4-hydroxy-3,5-dimethyl-phenyl)-1,3-dihydro-indol-2-one]
≤ 500 nM | Cc1cc(C2(c3cc(C)c(O)c(C)c3)C(=O)N(Cc3ccc(OC(F)(F)F)cc3)c3ccccc32)cc(C)c1O [Example 67, 3,3-Bis-(4-hydroxy-3,5-dimethyl-phenyl)-1-(4-trifluoromethoxy-benzyl)-1,3-dihydro-indol-2-one]
≤ 1000 nM | Cc1cc(C2(c3cc(C)c(O)c(C)c3)C(=O)N(Cc3ccc(C(F)(F)F)cc3C(F)(F)F)c3ccccc32)cc(C)c1O [Example 68, 1-(2,4-Bis-trifluoromethyl-benzyl)-3,3-bis-(4-hydroxy-3,5-dimethyl-phenyl)-1,3-dihydro-indol-2-one]
≤ 500 nM | Cc1cc(C2(c3cc(C)c(O)c(C)c3)C(=O)N(Cc3cccc(C)c3F)c3ccccc32)cc(C)c1O [Example 70, 1-(2-Fluoro-3-methyl-benzyl)-3,3-bis-(4-hydroxy-3,5-dimethyl-phenyl)-1,3-dihydro-indol-2-one]
≤ 500 nM | Cc1cc(C2(c3cc(C)c(O)c(C)c3)C(=O)N(Cc3ccc([N+](=O)[O-])o3)c3ccccc32)cc(C)c1O [Example 73, 3,3-Bis-(4-hydroxy-3,5-dimethyl-phenyl)-1-(5-nitro-furan-2-ylmethyl)-1,3-dihydro-indol-2-one]
≤ 1000 nM | Cc1cc(C2(c3cc(C)c(O)c(C)c3)C(=O)N(Cc3ccc(OCc4ccccc4)cc3)c3ccccc32)cc(C)c1O [Example 74, 1-(4-Benzyloxy-benzyl)-3,3-bis-(4-hydroxy-3,5-dimethyl-phenyl)-1,3-dihydro-indol-2-one]
≤ 500 nM | Cc1cc(C2(c3cc(C)c(O)c(C)c3)C(=O)N(Cc3c(F)cccc3Cl)c3ccccc32)cc(C)c1O [Example 76, 1-(2-Chloro-6-fluoro-benzyl)-3,3-bis-(4-hydroxy-3,5-dimethyl-phenyl)-1,3-dihydro-indol-2-one]
≤ 500 nM | CCCCCN1C(=O)C(c2cc(C)c(O)c(C)c2)(c2cc(C)c(O)c(C)c2)c2ccccc21 [Example 77, 3,3-Bis-(4-hydroxy-3,5-dimethyl-phenyl)-1-pentyl-1,3-dihydro-indol-2-one]
≤ 500 nM | Cc1cc(C2(c3cc(C)c(O)c(C)c3)C(=O)N(CC#N)c3ccccc32)cc(C)c1O [Example 78, [3,3-Bis-(4-hydroxy-3,5-dimethyl-phenyl)-2-oxo-2,3-dihydro-indol-1-yl]-acetonitrile]
≤ 500 nM | Cc1cc(C2(c3cc(C)c(O)c(C)c3)C(=O)N(Cc3ccccc3OC(F)F)c3ccccc32)cc(C)c1O [Example 79, 1-(2-Difluoromethoxy-benzyl)-3,3-bis-(4-hydroxy-3,5-dimethyl-phenyl)-1,3-dihydro-indol-2-one]
≤ 500 nM | CCOCCN1C(=O)C(c2cc(C)c(O)c(C)c2)(c2cc(C)c(O)c(C)c2)c2ccccc21 [Example 80, 1-(2-Ethoxy-ethyl)-3,3-bis-(4-hydroxy-3,5-dimethyl-phenyl)-1,3-dihydro-indol-2-one]
≤ 500 nM | Cc1cc(C2(c3cc(C)c(O)c(C)c3)C(=O)N(Cc3ccc(Cl)cc3F)c3ccccc32)cc(C)c1O [Example 83, 1-(4-Chloro-2-fluoro-benzyl)-3,3-bis-(4-hydroxy-3,5-dimethyl-phenyl)-1,3-dihydro-indol-2-one]
≤ 500 nM | Cc1cc(C2(c3cc(C)c(O)c(C)c3)C(=O)N(Cc3ccc(-c4csnn4)cc3)c3ccccc32)cc(C)c1O [Example 84, 3,3-Bis-(4-hydroxy-3,5-dimethyl-phenyl)-1-(4-[1,2,3]thiadiazol-4-yl-benzyl)-1,3-dihydro-indol-2-one]
≤ 500 nM | Cc1cc(C2(c3cc(C)c(O)c(C)c3)C(=O)N(Cc3cccc([N+](=O)[O-])c3)c3ccccc32)cc(C)c1O [Example 85, 3,3-Bis-(4-hydroxy-3,5-dimethyl-phenyl)-1-(3-nitro-benzyl)-1,3-dihydro-indol-2-one]
≤ 500 nM | Cc1cc(C2(c3cc(C)c(O)c(C)c3)C(=O)N(Cc3noc(C4CCC4)n3)c3ccccc32)cc(C)c1O [Example 86, 1-(5-Cyclobutyl-[1,2,4]oxadiazol-3-ylmethyl)-3,3-bis-(4-hydroxy-3,5-dimethyl-phenyl)-1,3-dihydro-indol-2-one]
≤ 500 nM | Cc1cc(C2(c3cc(C)c(O)c(C)c3)C(=O)N(Cc3noc(-c4ccco4)n3)c3ccccc32)cc(C)c1O [Example 87, 1-(5-Furan-2-yl-[1,2,4]oxadiazol-3-ylmethyl)-3,3-bis-(4-hydroxy-3,5-dimethyl-phenyl)-1,3-dihydro-indol-2-one]
≤ 1000 nM | CCc1nc(CN2C(=O)C(c3cc(C)c(O)c(C)c3)(c3cc(C)c(O)c(C)c3)c3ccccc32)cs1 [Example 90, 1-(2-Ethyl-thiazol-4-ylmethyl)-3,3-bis-(4-hydroxy-3,5-dimethyl-phenyl)-1,3-dihydro-indol-2-one]
≤ 10000 nM | Cc1cc(C2(c3cc(C)c(O)c(C)c3)C(=O)N(Cc3csc(-c4ccccc4)n3)c3ccccc32)cc(C)c1O [Example 91, 3,3-Bis-(4-hydroxy-3,5-dimethyl-phenyl)-1-(2-phenyl-thiazol-4-ylmethyl)-1,3-dihydro-indol-2-one]
≤ 500 nM | Cc1ccc2c(c1)C(c1cc(C)c(O)c(C)c1)(c1cc(C)c(O)c(C)c1)C(=O)N2Cc1csc(-c2ccccc2)n1 [Example 92, 3,3-Bis-(4-hydroxy-3,5-dimethyl-phenyl)-5-methyl-1-(2-phenyl-thiazol-4-ylmethyl)-1,3-dihydro-indol-2-one]
